# According to ChEMBL document CHEMBL5226390, “Synthesis and Structure-Activity Analysis of Icaritin Derivatives as Potential Tumor Growth Inhibitors of Hepatocellular Carcinoma Cells” (J Nat Prod, 2023):
# Columns and labels:
# [1] = test system: SMMC-7721; assay: Antiproliferative activity against human SMMC-7721 cells assessed as reduction in cell viability incubated for 48 hrs by MTT assay; type: functional, cell-based
# [2] = test system: Hep 3B2; assay: Antiproliferative activity against human Hep3B cells assessed as reduction in cell viability incubated for 48 hrs by MTT assay; type: functional, cell-based
# [3] = Solubility of the compound in water incubated for 24 hrs under stirring conditions by HPLC analysis; type: physicochemical
# [4] = test system: HepG2; assay: Antiproliferative activity against human HepG2 cells assessed as reduction in cell viability incubated for 48 hrs by MTT assay; type: functional, cell-based; conditions: HepG2, 48 h
# [5] = Homo sapiens, SMMC-7721, 48 h, read-out: IC50
"IC50 [1, 5] [µM]",solubility at 24 h [3] [µg/mL],IC50 [4] [µM],IC50 ([1]; smmc-7721),Structure (SMILES),IC50 [2] [µM]
> 10,< 10,> 10,,COc1ccc(-c2oc3c(CC=C(C)C)c(O)cc(O)c3c(=O)c2O)cc1 [ICARITIN],0.9
,,> 10,Not Active,COc1ccc(-c2oc3c(CC=C(C)C)c(OCCOCCN4CCC(O)CC4)cc(O)c3c(=O)c2O[C@H]2O[C@H](C)[C@@H](O)[C@H](O)[C@@H]2O)cc1,> 10
4.8,,2.5,,COc1ccc(-c2oc3c(CC=C(C)C)c(OCCCCCCN4CCCC4)cc(O)c3c(=O)c2O[C@H]2O[C@H](C)[C@@H](O)[C@H](O)[C@@H]2O)cc1,7.6
